Columns and labels:
[1] = target: Glutamate receptor ionotropic, NMDA 1 (Rattus norvegicus, UniProt P35439); assay: Inhibition of binding affinity of [3H]L-689,560 to the strychnine insensitive glycine site on rat brain membranes; format: cell membranes, Membrane
[2] = species on record: Rattus norvegicus; assay: Inhibition of N-Methyl-D-aspartate (NMDA)-induced depolarizations in rat cortical slices; format: functional
[3] = target: Glutamate receptor ionotropic, NMDA 1 (Rattus norvegicus) (UniProt P35439); assay: Inhibition of binding affinity of [3H]L-689,560 to the strychnine insensitive glycine site on rat brain membranes at a concentration of 100 uM; format: cell membranes; settings: Membrane
[4] = pKa value was measured; format: physicochemical

IC50 [1] [µM]	inhibition [3] [%]	pKa [4]	Compound	Kb [2] [µM]
9.5			O=C1N/C(=C\C2CC2)C(O)=C1c1ccccc1	
24.2			O=C1N/C(=C\c2ccccc2)C(O)=C1c1ccccc1	
3			C=C(C)COc1cccc(C2=C(O)/C(=C\CC)NC2=O)c1	15.8
	18		O=C1N/C(=C/C2CC2)C(O)=C1c1ccccc1	
		5.8	O=c1cc(O)c2ccc(Cl)cc2[nH]1	
0.7			CC/C=C1/NC(=O)C(c2cccc(Oc3ccccc3)c2)=C1O	6.15
		6.4	O=C1C=C(O)CN1	
15.7			CCC/C=C1\NC(=O)C(c2ccccc2)=C1O	154
45.5		4.6	CC/C=C1/NC(=O)C(c2ccccc2)=C1O	115
